The values below come from publication PMC4441267.

The structures appear in SMILES notation.

A short description of the data set: RuAAC macrocyclisation of azide/terminal alkyne linear peptidomimetics to 1,5-triazole ([Cp*RuCl]4 0.1 eq, Ar-degassed), then Boc removal (TMSCl/MeOH GP4 or HCl/dioxane GP5). As to conditions: toluene (reflux), 1.25 mM, 111.0 °C, 18.0 h, 2 steps.

`COC(=O)[C@@H]1Cc2ccc(cc2)-n2nncc2CNC(=O)NCCC[C@H](N)C(=O)N1` [Boc-Orn(CONH-propargyl)-Phe(4-N3)-OMe]: the ring closure, yield over several steps (from C#CCNC(=O)NCCC[C@H](NC(=O)OC(C)(C)C)C(=O)N[C@@H](Cc1ccc(N=[N+]=[N-])cc1)C(=O)OC, 18-membered ring) worked out at 46%.

Where the note is “from C#CCCC(=O)NCCCC[C@H](NC(=O)OC(C)(C)C)C(=O)N[C@@H](CCCCN=[N+]=[N-])C(=O)OC, 18-membered ring”, `COC(=O)[C@@H]1CCCCn2nncc2CCC(=O)NCCCC[C@H](N)C(=O)N1` [Boc-Lys(4-pentynoyl)-Lys(N3)-OMe] yielded a ring closure, yield over several steps of 37%.

The compound `COC(=O)[C@@H]1Cc2ccc(cc2)-n2nncc2CCC(=O)NCC[C@H](N)C(=O)N1` [Boc-Dab(4-pentynoyl)-Phe(4-N3)-OMe] had a ring closure, yield over several steps (from C#CCCC(=O)NCC[C@H](NC(=O)OC(C)(C)C)C(=O)N[C@@H](Cc1ccc(N=[N+]=[N-])cc1)C(=O)OC, 17-membered ring) of 83%.

The compound `COC(=O)[C@@H]1CCCCn2nncc2CNC(=O)NC[C@H](N)C(=O)N1` [Boc-Dap(CONH-propargyl)-Lys(N3)-OMe] returned a ring closure, yield over several steps (from C#CCNC(=O)NC[C@H](NC(=O)OC(C)(C)C)C(=O)N[C@@H](CCCCN=[N+]=[N-])C(=O)OC, 15-membered ring) of 73%.

For the setting “from C#CCNC(=O)NCC[C@H](NC(=O)OC(C)(C)C)C(=O)N[C@@H](CCCCN=[N+]=[N-])C(=O)OC, 16-membered ring”, `COC(=O)[C@@H]1CCCCn2nncc2CNC(=O)NCC[C@H](N)C(=O)N1` [Boc-Dab(CONH-propargyl)-Lys(N3)-OMe] had a ring closure, yield over several steps of 99%.

For the compound `COC(=O)[C@@H]1CCCCNC(=O)[C@H](Cc2ccccc2)n2nncc2CNC(=O)NC[C@H](N)C(=O)N1` [Boc-Dap(CONH-propargyl)-Lys(N3-Phe)-OMe], where the note is “from C#CCNC(=O)NC[C@H](NC(=O)OC(C)(C)C)C(=O)N[C@@H](CCCCNC(=O)[C@H](Cc1ccccc1)N=[N+]=[N-])C(=O)OC, 18-membered ring”, the ring closure, yield over several steps worked out at 38%.

For the setting “from C#CCCC(=O)Nc1ccc(C[C@H](NC(=O)OC(C)(C)C)C(=O)N[C@@H](CCCCN=[N+]=[N-])C(=O)OC)cc1, 19-membered ring”, `COC(=O)[C@@H]1CCCCn2nncc2CCC(=O)Nc2ccc(cc2)C[C@H](N)C(=O)N1` [Boc-Phe(4-NH-4-pentynoyl)-Lys(N3)-OMe] registered a ring closure, yield over several steps of 71%.

Where the note is “from C#CCCC(=O)NC[C@H](NC(=O)OC(C)(C)C)C(=O)N[C@@H](Cc1ccc(N=[N+]=[N-])cc1)C(=O)OC, 16-membered ring”, `COC(=O)[C@@H]1Cc2ccc(cc2)-n2nncc2CCC(=O)NC[C@H](N)C(=O)N1` [Boc-Dap(4-pentynoyl)-Phe(4-N3)-OMe] gave a ring closure, yield over several steps of 33%.

Under “from C#CCCCC(=O)NCCC[C@H](NC(=O)OC(C)(C)C)C(=O)N[C@@H](CNC(=O)[C@H](Cc1ccccc1)N=[N+]=[N-])C(=O)OC, 18-membered ring”, `COC(=O)[C@@H]1CNC(=O)[C@H](Cc2ccccc2)n2nncc2CCCC(=O)NCCC[C@H](N)C(=O)N1` [Boc-Orn(5-hexynoyl)-Dap(N3-Phe)-OMe] returned a ring closure, yield over several steps of 46%.

As for `COC(=O)[C@@H]1CCCCNC(=O)[C@H](Cc2ccccc2)n2nncc2CCC(=O)NCC[C@H](N)C(=O)N1` [Boc-Dab(4-pentynoyl)-Lys(N3-Phe)-OMe], the ring closure, yield over several steps (from C#CCCC(=O)NCC[C@H](NC(=O)OC(C)(C)C)C(=O)N[C@@H](CCCCNC(=O)[C@H](Cc1ccccc1)N=[N+]=[N-])C(=O)OC, 19-membered ring) was found to be 90%.

For the compound `COC(=O)[C@@H]1CNC(=O)[C@H](Cc2ccccc2)n2nncc2CCC(=O)NCCCC[C@H](N)C(=O)N1` [Boc-Lys(4-pentynoyl)-Dap(N3-Phe)-OMe], the ring closure, yield over several steps (from C#CCCC(=O)NCCCC[C@H](NC(=O)OC(C)(C)C)C(=O)N[C@@H](CNC(=O)[C@H](Cc1ccccc1)N=[N+]=[N-])C(=O)OC, 18-membered ring) was 90%.

`COC(=O)[C@@H]1CCCCn2nncc2CCC(=O)NC[C@H](N)C(=O)N1` [Boc-Dap(4-pentynoyl)-Lys(N3)-OMe] had a ring closure, yield over several steps (from C#CCCC(=O)NC[C@H](NC(=O)OC(C)(C)C)C(=O)N[C@@H](CCCCN=[N+]=[N-])C(=O)OC, 15-membered ring) of 88%.

Regarding `COC(=O)[C@@H]1CCCCn2nncc2CCCC(=O)NCCCC[C@H](N)C(=O)N1` [Boc-Lys(5-hexynoyl)-Lys(N3)-OMe], the ring closure, yield over several steps (from C#CCCCC(=O)NCCCC[C@H](NC(=O)OC(C)(C)C)C(=O)N[C@@H](CCCCN=[N+]=[N-])C(=O)OC, 19-membered ring) turned out to be 65%.

The compound `COC(=O)[C@@H]1CNC(=O)[C@H](Cc2ccccc2)n2nncc2CNC(=O)NCC[C@H](N)C(=O)N1` [Boc-Dab(CONH-propargyl)-Dap(N3-Phe)-OMe] returned a ring closure, yield over several steps (from C#CCNC(=O)NCC[C@H](NC(=O)OC(C)(C)C)C(=O)N[C@@H](CNC(=O)[C@H](Cc1ccccc1)N=[N+]=[N-])C(=O)OC, 16-membered ring) of 52%.

The compound `COC(=O)[C@@H]1CNC(=O)[C@H](Cc2ccccc2)n2nncc2CCCC(=O)NCC[C@H](N)C(=O)N1` [Boc-Dab(5-hexynoyl)-Dap(N3-Phe)-OMe] came in with a ring closure, yield over several steps (from C#CCCCC(=O)NCC[C@H](NC(=O)OC(C)(C)C)C(=O)N[C@@H](CNC(=O)[C@H](Cc1ccccc1)N=[N+]=[N-])C(=O)OC, 17-membered ring) of 99%.

As for `COC(=O)[C@@H]1CCCn2nncc2CCC(=O)NC[C@H](N)C(=O)N1` [Boc-Dap(4-pentynoyl)-Orn(N3)-OMe], for the setting “from C#CCCC(=O)NC[C@H](NC(=O)OC(C)(C)C)C(=O)N[C@@H](CCCN=[N+]=[N-])C(=O)OC, 14-membered ring”, the ring closure, yield over several steps was 99%.

Regarding `COC(=O)[C@@H]1Cc2ccc(cc2)-n2nncc2CCCC(=O)NCC[C@H](N)C(=O)N1` [Boc-Dab(5-hexynoyl)-Phe(4-N3)-OMe], the ring closure, yield over several steps (from C#CCCCC(=O)NCC[C@H](NC(=O)OC(C)(C)C)C(=O)N[C@@H](Cc1ccc(N=[N+]=[N-])cc1)C(=O)OC, 18-membered ring) worked out at 97%.

With `COC(=O)[C@@H]1Cc2ccc(cc2)-n2nncc2CCC(=O)NCCC[C@H](N)C(=O)N1` [Boc-Orn(4-pentynoyl)-Phe(4-N3)-OMe], where the note is “from C#CCCC(=O)NCCC[C@H](NC(=O)OC(C)(C)C)C(=O)N[C@@H](Cc1ccc(N=[N+]=[N-])cc1)C(=O)OC, 18-membered ring”, the ring closure, yield over several steps came out at 62%.

Under “from C#CCNC(=O)NCCCC[C@H](NC(=O)OC(C)(C)C)C(=O)N[C@@H](CNC(=O)[C@H](Cc1ccccc1)N=[N+]=[N-])C(=O)OC, 18-membered ring”, `COC(=O)[C@@H]1CNC(=O)[C@H](Cc2ccccc2)n2nncc2CNC(=O)NCCCC[C@H](N)C(=O)N1` [Boc-Lys(CONH-propargyl)-Dap(N3-Phe)-OMe] gave a ring closure, yield over several steps of 96%.

For the compound `COC(=O)[C@@H]1CNC(=O)[C@H](Cc2ccccc2)n2nncc2CNC(=O)NCCC[C@H](N)C(=O)N1` [Boc-Orn(CONH-propargyl)-Dap(N3-Phe)-OMe], the ring closure, yield over several steps (from C#CCNC(=O)NCCC[C@H](NC(=O)OC(C)(C)C)C(=O)N[C@@H](CNC(=O)[C@H](Cc1ccccc1)N=[N+]=[N-])C(=O)OC, 17-membered ring) amounted to 86%.

With `COC(=O)[C@@H]1CCCn2nncc2CCC(=O)NCCC[C@H](N)C(=O)N1` [Boc-Orn(4-pentynoyl)-Orn(N3)-OMe], the ring closure, yield over several steps (from C#CCCC(=O)NCCC[C@H](NC(=O)OC(C)(C)C)C(=O)N[C@@H](CCCN=[N+]=[N-])C(=O)OC, 16-membered ring) was 99%.

As to `COC(=O)[C@@H]1CCCCNC(=O)[C@H](Cc2ccccc2)n2nncc2CNC(=O)NCCC[C@H](N)C(=O)N1` [Boc-Orn(CONH-propargyl)-Lys(N3-Phe)-OMe], the ring closure, yield over several steps (from C#CCNC(=O)NCCC[C@H](NC(=O)OC(C)(C)C)C(=O)N[C@@H](CCCCNC(=O)[C@H](Cc1ccccc1)N=[N+]=[N-])C(=O)OC, 20-membered ring) stood at 56%.

Where the note is “from C#CCNC(=O)NC[C@H](NC(=O)OC(C)(C)C)C(=O)N[C@@H](CCCN=[N+]=[N-])C(=O)OC, 14-membered ring”, `COC(=O)[C@@H]1CCCn2nncc2CNC(=O)NC[C@H](N)C(=O)N1` [Boc-Dap(CONH-propargyl)-Orn(N3)-OMe] came in with a ring closure, yield over several steps of 80%.

In turn, `COC(=O)[C@@H]1CCCn2nncc2CCCC(=O)NC[C@H](N)C(=O)N1` [Boc-Dap(5-hexynoyl)-Orn(N3)-OMe] registered a ring closure, yield over several steps (from C#CCCCC(=O)NC[C@H](NC(=O)OC(C)(C)C)C(=O)N[C@@H](CCCN=[N+]=[N-])C(=O)OC, 15-membered ring) of 99%.

Turning to `COC(=O)[C@@H]1CCCn2nncc2CCCC(=O)Nc2ccc(cc2)C[C@H](N)C(=O)N1` [Boc-Phe(4-NH-5-hexynoyl)-Orn(N3)-OMe], for the setting “from C#CCCCC(=O)Nc1ccc(C[C@H](NC(=O)OC(C)(C)C)C(=O)N[C@@H](CCCN=[N+]=[N-])C(=O)OC)cc1, 19-membered ring”, the ring closure, yield over several steps was 68%.

`COC(=O)[C@@H]1CCCCNC(=O)[C@H](Cc2ccccc2)n2nncc2CCC(=O)NC[C@H](N)C(=O)N1` [Boc-Dap(4-pentynoyl)-Lys(N3-Phe)-OMe] registered a ring closure, yield over several steps (from C#CCCC(=O)NC[C@H](NC(=O)OC(C)(C)C)C(=O)N[C@@H](CCCCNC(=O)[C@H](Cc1ccccc1)N=[N+]=[N-])C(=O)OC, 18-membered ring) of 99%.
